Experimental data published in patent publication US12427135B2 (priority 2019, dated 2025).

How the values were obtained:
Stx2A1 [1] = target: T1, Stx2A1 (Escherichia phage 933W (Bacteriophage 933W), UniProt P09385); assay type: binding
Stx2A1 [2] = target: T1, Stx2A1; test: biochemical; assay type: biochemical
RTA [3] = target: T2, RTA (Ricinus communis (Castor bean), UniProt P02879); assay type: binding
RTA [4] = target: T2, RTA; test: biochemical; assay type: biochemical; conditions: for inhibition at 50 µM: read-out: Percent inhibition at 50 μM
Stx2a holotoxin = Stx2a holotoxin (Escherichia phage 933W (Bacteriophage 933W), UniProt P09385); test: cell-based; assay type: cell-based
[5] = read-out: % inhibition Stx2A1 in yeast ribosome
[6] = Vero, read-out: % Inhibition Stx2a depurination in Vero cell

Chain of Stx2a holotoxin (P09385 23-319 limits assumed): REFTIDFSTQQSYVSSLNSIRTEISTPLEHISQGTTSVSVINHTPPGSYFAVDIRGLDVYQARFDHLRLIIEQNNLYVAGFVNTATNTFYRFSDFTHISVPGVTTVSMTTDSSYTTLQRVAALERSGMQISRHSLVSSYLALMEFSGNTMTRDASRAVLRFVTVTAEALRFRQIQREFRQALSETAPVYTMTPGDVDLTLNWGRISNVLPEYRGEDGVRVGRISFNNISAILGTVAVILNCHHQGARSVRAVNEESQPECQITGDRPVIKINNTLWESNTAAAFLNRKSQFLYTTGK
T1 sequence (P09385 23-272 limits assumed): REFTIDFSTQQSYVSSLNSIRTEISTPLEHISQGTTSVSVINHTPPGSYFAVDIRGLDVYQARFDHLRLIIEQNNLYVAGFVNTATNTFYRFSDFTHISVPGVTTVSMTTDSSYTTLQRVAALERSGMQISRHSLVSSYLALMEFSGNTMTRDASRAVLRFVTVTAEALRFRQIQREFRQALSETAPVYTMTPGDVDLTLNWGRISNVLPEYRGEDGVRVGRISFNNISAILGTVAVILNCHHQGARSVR

Structure (SMILES): O=C(O)c1ccc(-c2ccc(Cl)cc2)o1
- Kd (Stx2A1 [1]): 0.575 mM
- IC50 (Stx2A1 [2]): 194 µM

Structure (SMILES): Cc1ccc(-c2ccc(C(=O)O)o2)cc1
- Kd (Stx2A1 [1]): 0.606 mM
- inhibition at 100 µM (Stx2A1 [2]; [5]): 64%
- inhibition at 200 µM (Stx2A1 [2]; [5]): 70%

Structure (SMILES): O=C(O)c1csc(-c2cccc(Cl)c2)n1
- Kd (Stx2A1 [1]): 0.579 mM
- inhibition at 100 µM (Stx2A1 [2]; [5]): 83%
- inhibition at 200 µM (Stx2A1 [2]; [5]): 91%

Structure (SMILES): O=C(O)c1csc(-c2cccc(Cl)c2Cl)n1
- Kd (Stx2A1 [1]): 0.487 mM
- inhibition at 100 µM (Stx2A1 [2]; [5]): 82%
- inhibition at 200 µM (Stx2A1 [2]; [5]): 62%

Structure (SMILES): O=C(O)c1ccc(-c2ccccc2)s1 [CC10501, 5-phenylthiophene-2-carboxylic acid]
- binding in the binding level screen (RTA [3]): bound RTA better than the positive controls
- IC50 fold weaker than CC70601 (RTA [4]): 5.6 fold

Structure (SMILES): O=C(O)c1ccc(Cc2cccs2)cc1 [CC70601, 4-(thien-2-ylmethyl) benzoic acid]
- binding in the binding level screen (RTA [3]): bound RTA better than the positive controls

Structure (SMILES): O=C(O)c1cc2c(s1)-c1ccccc1CC2 [PD00589, reference compound]
- inhibitory activity against Stx2A/Stx2A1 depurination in vitro (Stx2A1 [2]): dose-dependent inhibition
- protection against depurination by Stx2a holotoxin in Vero cells (Stx2a holotoxin): protected Vero cells against depurination

Structure (SMILES): Cc1ccccc1-c1ccc(C(=O)O)s1 [RU-NT-070]
- Kd (RTA [3]): 72 µM
- IC50 (RTA [4]): 19 µM

Structure (SMILES): Cc1cc(C)c(-c2ccc(C(=O)O)s2)c(C)c1 [RU-NT-075]
- inhibition at 50 µM (RTA [4]): 45%

Structure (SMILES): O=C(O)c1ccc(-c2cccc3c2OCC3)s1 [RU-NT-105]
- Kd (RTA [3]): 1180 ± 193 µM
- inhibition at 100 µM (RTA [4]; read-out: Percent inhibition at 100 μM): 54 ± 7%

Structure (SMILES): Cc1cccc(F)c1-c1ccc(C(=O)O)s1 [RU-NT-110]
- Kd (RTA [3]): 93 µM
- inhibition at 50 µM (RTA [4]): 61%

Structure (SMILES): COc1cccc(C)c1-c1ccc(C(=O)O)s1 [RU-NT-111]
- Kd (RTA [3]): 51 µM
- inhibition at 50 µM (RTA [4]): 66%

Structure (SMILES): Cc1cccc(O)c1-c1ccc(C(=O)O)s1 [RU-NT-113]
- Kd (RTA [3]): 31 µM
- inhibition at 50 µM (RTA [4]): 69%

Structure (SMILES): O=C(O)c1cc2c(s1)-c1ccccc1CC2 [drawing 373]
- Kd (Stx2A1 [1]): 0.629 mM
- inhibition at 50 µM (Stx2A1 [2]; [5]): 45%
- inhibition at 100 µM (Stx2A1 [2]; [5]): 51%
- inhibition at 200 µM (Stx2A1 [2]; [5]): 80%
- inhibition at 250 µM (Stx2a holotoxin; [6]): 18%
- inhibition at 500 µM (Stx2a holotoxin; [6]): 36%
